Reference: ChEMBL document CHEMBL1201862, “PubChem BioAssay data set” (2004)
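Five concentrations, 48 hours, 96-well plates. GI50: concentration for 50% inhibition of growth.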 Calls of active or inactive are those of the source. Cut-off read from the data, not from the text of the source: active = GI50 up to about 1.1 µM and inactive = higher.

Key:
Assay in all cases: DTP human tumour cell line panel, 48 h
EKVX = test system: EKVX
NCI-H522 = test system: NCI-H522
LOX IMVI = test system: LOX IMVI
HCT-116 = test system: HCT-116
A549 = test system: A549
HOP-62 = test system: HOP-62
SF-268 = test system: SF-268
CCRF-CEM = test system: CCRF-CEM
SK-MEL-5 = test system: SK-MEL-5
SR = test system: SR
786-0 = test system: 786-0
OVCAR-4 = test system: OVCAR-4
SK-OV-3 = test system: SK-OV-3
Malme-3M = test system: Malme-3M
SK-MEL-28 = test system: SK-MEL-28
SN12C = test system: SN12C
SF-539 = test system: SF-539
DLD-1 = test system: DLD-1
SK-MEL-2 = test system: SK-MEL-2
ACHN = test system: ACHN
SF-295 = test system: SF-295
UO-31 = test system: UO-31
M19-MEL = test system: M19-MEL
SNB-75 = test system: SNB-75
NCI-H23 = test system: NCI-H23
SW-620 = test system: SW-620
OVCAR-8 = test system: OVCAR-8
K562 = test system: K562
HOP-92 = test system: HOP-92
SNB-78 = test system: SNB-78
DMS-273 = test system: DMS-273
CAKI-1 = test system: CAKI-1
SNB-19 = test system: SNB-19
NCI-H460 = test system: NCI-H460
KM-20L2 = test system: KM-20L2
COLO 205 = test system: COLO 205
IGROV-1 = test system: IGROV-1
XF498 = test system: XF498
HCT-15 = test system: HCT-15
M14 = test system: M14
OVCAR-3 = test system: OVCAR-3
U-251 = test system: U-251
RPMI-8226 = test system: RPMI-8226
HT-29 = test system: HT-29
LXFL 529 = test system: LXFL 529
RXF 631 = test system: RXF 631
HCC 2998 = test system: HCC 2998
OVCAR-5 = test system: OVCAR-5
NCI-H226 = test system: NCI-H226
KM12 = test system: KM12
TK-10 = test system: TK-10
UACC-62 = test system: UACC-62
DMS-114 = test system: DMS-114
HL-60 = test system: HL-60
UACC-257 = test system: UACC-257
MOLT-4 = test system: MOLT-4
RXF 393 = test system: RXF 393
HOP-18 = test system: HOP-18
A498 = test system: A498

For `C=C1C(=O)O[C@@H]2C[C@@]3(C)[C@H](O)CCC(=C)[C@@H]3C[C@H]12` [ASPERILIN], the GI50 (EKVX) was 16.1 µM (inactive), the GI50 (NCI-H522) was 4.16 µM (inactive) and the GI50 (LOX IMVI) was 5.27 µM (inactive). The GI50 (HCT-116) was 4.86 µM (inactive), the GI50 (A549) was 21.5 µM (inactive) and the GI50 (HOP-62) was 17.1 µM (inactive). The GI50 (SF-268) was 15.6 µM (inactive), the GI50 (CCRF-CEM) was 3.01 µM (inactive) and the GI50 (SK-MEL-5) was 4.26 µM (inactive). The GI50 (SR) was 3.14 µM (inactive), the GI50 (786-0) was 9.66 µM (inactive) and the GI50 (OVCAR-4) was 11.8 µM (inactive). For the same compound, the GI50 (SK-OV-3) was 22.3 µM (inactive), the GI50 (Malme-3M) was 3.11 µM (inactive) and the GI50 (SK-MEL-28) was 7.59 µM (inactive). For the same compound, the GI50 (SN12C) was 5.94 µM (inactive), the GI50 (SF-539) was 11 µM (inactive) and the GI50 (DLD-1) was 3.69 µM (inactive). For the same compound, the GI50 (SK-MEL-2) was 11.6 µM (inactive), the GI50 (ACHN) was 14.4 µM (inactive) and the GI50 (SF-295) was 14.1 µM (inactive). The GI50 (UO-31) was 10.8 µM (inactive), the GI50 (M19-MEL) was 6.68 µM (inactive) and the GI50 (SNB-75) was 3.69 µM (inactive). The GI50 (NCI-H23) was 11.4 µM (inactive), the GI50 (SW-620) was 3.44 µM (inactive) and the GI50 (OVCAR-8) was 7.24 µM (inactive). For the same compound, the GI50 (K562) was 2.39 µM (inactive), the GI50 (HOP-92) was 5.13 µM (inactive) and the GI50 (SNB-78) was 6.04 µM (inactive). For the same compound, the GI50 (DMS-273) was 8.38 µM (inactive), the GI50 (CAKI-1) was 5.58 µM (inactive) and the GI50 (SNB-19) was 18.7 µM (inactive). The GI50 (NCI-H460) was 6.14 µM (inactive), the GI50 (KM-20L2) was 7.53 µM (inactive) and the GI50 (COLO 205) was 2.72 µM (inactive). For the same compound, the GI50 (IGROV-1) was 20.5 µM (inactive), the GI50 (XF498) was 2.59 µM (inactive) and the GI50 (HCT-15) was 11.3 µM. The GI50 (M14) was 3.31 µM (inactive), the GI50 (OVCAR-3) was 8.15 µM (inactive) and the GI50 (U-251) was 13.4 µM (inactive). For the same compound, the GI50 (RPMI-8226) was 3.46 µM (inactive), the GI50 (HT-29) was 3.6 µM (inactive) and the GI50 (LXFL 529) was 2.75 µM (inactive). The GI50 (RXF 631) was 13.6 µM (inactive), the GI50 (HCC 2998) was 7.05 µM (inactive) and the GI50 (OVCAR-5) was 6.12 µM (inactive). For the same compound, the GI50 (NCI-H226) was 4.29 µM (inactive), the GI50 (KM12) was 3.49 µM (inactive) and the GI50 (TK-10) was 12.5 µM (inactive). The GI50 (UACC-62) was 5.96 µM (inactive) and the GI50 (DMS-114) was 14.4 µM (inactive).
`COC(=O)c1cc2c(s1)C(=O)c1ccccc1-2` was tested, and the GI50 (EKVX) was > 100 µM (inactive), the GI50 (NCI-H522) was > 100 µM (inactive) and the GI50 (LOX IMVI) was > 100 µM (inactive). The GI50 (HCT-116) was > 100 µM (inactive), the GI50 (A549) was > 100 µM (inactive) and the GI50 (HOP-62) was > 100 µM (inactive). For the same compound, the GI50 (SF-268) was > 100 µM (inactive), the GI50 (CCRF-CEM) was > 100 µM (inactive) and the GI50 (SK-MEL-5) was > 100 µM (inactive). The GI50 (786-0) was > 100 µM (inactive), the GI50 (OVCAR-4) was > 100 µM (inactive) and the GI50 (SK-OV-3) was > 100 µM (inactive). For the same compound, the GI50 (HL-60) was > 100 µM (inactive), the GI50 (Malme-3M) was > 100 µM (inactive) and the GI50 (SK-MEL-28) was > 100 µM (inactive). For the same compound, the GI50 (SN12C) was > 100 µM (inactive), the GI50 (SF-539) was > 100 µM (inactive) and the GI50 (DLD-1) was > 100 µM (inactive). For the same compound, the GI50 (SK-MEL-2) was > 100 µM (inactive), the GI50 (ACHN) was > 100 µM (inactive) and the GI50 (SF-295) was > 100 µM (inactive). For the same compound, the GI50 (UO-31) was > 100 µM (inactive), the GI50 (M19-MEL) was > 100 µM (inactive) and the GI50 (SNB-75) was > 100 µM (inactive). The GI50 (NCI-H23) was > 100 µM (inactive), the GI50 (SW-620) was > 100 µM (inactive) and the GI50 (OVCAR-8) was > 100 µM (inactive). For the same compound, the GI50 (K562) was > 100 µM (inactive), the GI50 (HOP-92) was > 100 µM (inactive) and the GI50 (SNB-78) was > 100 µM (inactive). For the same compound, the GI50 (DMS-273) was > 100 µM (inactive), the GI50 (CAKI-1) was > 100 µM (inactive) and the GI50 (UACC-257) was > 100 µM (inactive). For the same compound, the GI50 (SNB-19) was > 100 µM (inactive), the GI50 (NCI-H460) was > 100 µM (inactive) and the GI50 (KM-20L2) was > 100 µM (inactive). The GI50 (COLO 205) was > 100 µM (inactive), the GI50 (IGROV-1) was > 100 µM (inactive) and the GI50 (MOLT-4) was > 100 µM (inactive). The GI50 (HCT-15) was > 100 µM, the GI50 (M14) was > 100 µM (inactive) and the GI50 (OVCAR-3) was > 100 µM (inactive). For the same compound, the GI50 (U-251) was > 100 µM (inactive), the GI50 (RXF 393) was > 100 µM (inactive) and the GI50 (HT-29) was > 10 µM (inactive). For the same compound, the GI50 (LXFL 529) was > 100 µM (inactive), the GI50 (RXF 631) was > 100 µM (inactive) and the GI50 (HCC 2998) was > 100 µM (inactive). For the same compound, the GI50 (OVCAR-5) was > 100 µM (inactive), the GI50 (HOP-18) was > 100 µM (inactive) and the GI50 (NCI-H226) was > 100 µM (inactive). For the same compound, the GI50 (KM12) was > 100 µM (inactive), the GI50 (TK-10) was > 100 µM (inactive) and the GI50 (UACC-62) was > 100 µM (inactive). The GI50 (DMS-114) was > 100 µM (inactive) and the GI50 (A498) was > 100 µM (inactive).
`COc1cc([C@@H]2c3cc4c(cc3[C@@H](OC(=O)c3ccccc3)C3COC(=O)[C@@H]32)OCO4)cc(OC)c1O` (some centres not stated) was tested, and the GI50 (NCI-H522) was < 0.01 µM (active), the GI50 (LOX IMVI) was < 0.01 µM (active) and the GI50 (HCT-116) was < 0.01 µM (active). For the same compound, the GI50 (A549) was 0.0132 µM (active), the GI50 (HOP-62) was 0.0208 µM (active) and the GI50 (SF-268) was 0.0289 µM (active). For the same compound, the GI50 (CCRF-CEM) was 0.0304 µM (active), the GI50 (SK-MEL-5) was < 0.01 µM (active) and the GI50 (786-0) was 0.0254 µM (active). The GI50 (OVCAR-4) was 25.9 µM (inactive), the GI50 (SK-OV-3) was < 0.01 µM (active) and the GI50 (HL-60) was < 0.01 µM (active). The GI50 (Malme-3M) was < 0.01 µM (active), the GI50 (SK-MEL-28) was < 0.01 µM (active) and the GI50 (SN12C) was 0.0286 µM (active). The GI50 (SF-539) was < 0.01 µM (active), the GI50 (SK-MEL-2) was 0.0104 µM (active) and the GI50 (ACHN) was < 0.01 µM (active). The GI50 (SF-295) was < 0.01 µM (active), the GI50 (UO-31) was 0.132 µM (active) and the GI50 (M19-MEL) was < 0.01 µM (active). For the same compound, the GI50 (SNB-75) was < 0.01 µM (active), the GI50 (NCI-H23) was 0.0148 µM (active) and the GI50 (SW-620) was < 0.01 µM (active). The GI50 (OVCAR-8) was < 0.01 µM (active), the GI50 (K562) was < 0.01 µM (active) and the GI50 (HOP-92) was < 0.01 µM (active). The GI50 (DMS-273) was < 0.01 µM (active), the GI50 (CAKI-1) was < 0.01 µM (active) and the GI50 (NCI-H460) was 0.0129 µM (active). For the same compound, the GI50 (KM-20L2) was 0.0128 µM (active), the GI50 (COLO 205) was 0.148 µM (active) and the GI50 (IGROV-1) was 0.0123 µM (active). The GI50 (MOLT-4) was 0.0413 µM (active), the GI50 (U-251) was 0.0143 µM (active) and the GI50 (RPMI-8226) was 0.012 µM (active). The GI50 (RXF 393) was 0.0101 µM (active), the GI50 (HT-29) was < 0.01 µM (active) and the GI50 (LXFL 529) was < 0.01 µM (active). For the same compound, the GI50 (RXF 631) was < 0.01 µM (active), the GI50 (HCC 2998) was 0.0345 µM (active) and the GI50 (OVCAR-5) was 68.9 µM (inactive). The GI50 (HOP-18) was > 100 µM (inactive), the GI50 (NCI-H226) was < 0.01 µM (active) and the GI50 (KM12) was < 0.01 µM (active). For the same compound, the GI50 (TK-10) was 38.9 µM (inactive), the GI50 (UACC-62) was < 0.01 µM (active) and the GI50 (DMS-114) was < 0.01 µM (active).
